In patent US10335504B2, “Heterocyclic molecules for biomedical imaging and therapeutic applications” (Washington University, priority 2013, dated 2019):
“Also recorded” adds a separate entry of the source. Where two headings read alike, the source gives them in different places.

Legend:
[1] = cited from earlier work
BS1 and BS3 sites = conditions: cited from earlier work
preformed Aβ1-42 fibrils = molecular target: T1, preformed Aβ1-42 fibrils (Homo sapiens, UniProt P05067); experiment: Binding assay with preformed Aβ1-42 fibrils/aggregates in PBS (fluorescence)
T1 construct: preformed Aβ1-42 fibrils
T1 sequence (P05067 672-713 limits assumed): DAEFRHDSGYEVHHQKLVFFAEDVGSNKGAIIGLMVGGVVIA
Excerpt: In some embodiments of the present teachings, binding assays to preformed fibrils or AD brain homogenate extracts can be performed using literature procedures (Klunk, W., et al. Uncharged thioflavin-T derivatives bind to amyloid-beta protein with high affinity and readily enter the brain. Life Sci 69, 1471-1484 (2001); Zhen, W., et al. Synthesis and amyloid binding properties of rhenium complexes: preliminary progress towards a reagent for SPECT imaging of Alzheimer's disease brain. J Med Chem 42, 2805-2815 (1999)). Prior to binding assays, the stock solution (2 μM) can be thawed. To aliquots of this stock solution, ^18F-AI-182 (also exemplified for either ^18F-AI-183 or ^18F-AI-187) can be added at various concentrations to a final concentration of 200 nM Aβ fibrils or 200 μL of AD brain extracts (20-25 μg). The aggregate-bound ^18F-AI-182 (or other analogues) can be collected on Whatman GF filters using Brandon M-24R cell harvester, washed, and counted in a γ-counter (Perkin Elmer). Inhibition constants (Ki) can be calculated as described previously (Han, H., Cho, C. & Lansbury, P. J. Technetium complexes for quantification of brain amyloid. J Am Chem Soc 118, 4506-4508 (1996)). Binding assay results can assist in evaluation of target specificity.
Binding assays of F-AI-182 with preformed Aβ1-42 aggregates were performed in PBS. […] Fluorescence was not observed using Aβ aggregates alone in PBS upon excitation at 410 nm (a negative control). […] Comparative analyses can be performed with other compounds such as AV-45, BAYER 94-9172, and AZD4694. An agent can be interacting with either of the two modestly high affinity binding sites (BS1& BS2) or recognizing an entirely new site on Aβ1-42. F-AI-182 can register different complementary binding sites in relation to Aβ-pathophysiology compared to current agents.

[2] = Literature biodistribution in normal mice (Choi et al. 2009); format: in vivo, mouse
[3] = cited from earlier work; for brain uptake: normal mice
[4] = cited from earlier work; remark: listed apart in the source
Aβ plaques [5] = molecular target: T2, Aβ plaques (Homo sapiens, UniProt P05067); experiment: Ex vivo staining of mouse brain sections; format: binding; conditions: APPsw+/− mice, 24 months old
T2 construct: from tissue; host or cells: brain of APPsw+/-/PS1 (and APPsw+/-) transgenic mice: sections ex vivo, and live animals for multiphoton imaging
T2 sequence (P05067 672-713 limits assumed): as above
Protocol: FIG. 2 illustrates ex vivo staining studies were performed on brain sections (50 μm) of an APPsw^+/−/PS1 mouse (24 months old) and a control WT mouse (BL/6; 24 months old) using well-established procedures. Briefly, tissue sections were immunostained with mouse monoclonal antibody and visualized by donkey-anti-mouse HJ3.4 Aβ monoclonal antibody-Alexa 568 as a positive control. […] By comparison, no staining in WT mice was seen either with F-AI-182 or the antibody indicating the targeting specificity of F-AI-182. The slides were analyzed on a Zeiss LSM 5 PASCAL confocal system coupled to a Zeiss Axiovert 200 microscope.
The slides were analyzed using a Nikon Ti-E PFS inverted microscope equipped with a Nikon 10x 0.3 NA Plan APO objective, Prior H117 ProScan flat top linear encoded stage, and Prior Lumen 200PRO illumination system with standard DAPI and FITC filter sets. The images were acquired using a Photometrics CoolSNAP HQ2 digital camera and MetaMorph microscopy automaton, and imaging software. Images were processed and analyzed using the Image J software package (NIH).

Aβ plaques [6] = experiment: Staining of human AD brain tissue sections; format: binding; conditions: person with AD
Protocol: Staining experiments were performed with human brain tissues. Tissue samples were obtained from the frontal lobe of clinically and neuropathologically well-characterized cases. The neuropathological diagnosis of AD was based on the criteria of the Consortium to Establish a Registry for Alzheimer's Disease (CERAD) (Mirra, S., et al. The Consortium to Establish a Registry for Alzheimer's Disease (CERAD). Part II. Standardization of the neuropathologic assessment of Alzheimer's disease. Neurology 41, 479-486 (1991)) or the National Institute of Aging-Reagan Institute (NIA-RI) (Hyman, B. & Trojanowski, J. Consensus recommendations for the postmortem diagnosis of Alzheimer disease from the National Institute on Aging and the Reagan Institute Working Group on diagnostic criteria for the neuropathological assessment of Alzheimer disease. J Neuropathol Exp Neurol 56, 1095-1097. (1997)). […]
The fluorescent probe (F-AI-183) labels fibrillar amyloid (arrow). The slides were analyzed on a using a Nikon Ti-E PFS inverted microscope equipped with a Nikon 10×0.3 NA Plan APO objective, Prior H117 ProScan flat top linear encoded stage, and Prior Lumen 200PRO illumination system with standard DAPI and FITC filter sets. […] Images were processed and analyzed using the Image J software package (NIH).

[7] = Biodistribution study in normal FVB mice; format: in vivo, mouse; conditions: for tissue uptake at 5 min / tissue uptake at 120 min: mouse, intravenous
Excerpt: In various configurations, agents can be evaluated in part by exploring the tissue distribution and kinetics of ^18F-AI-182 or other agents in normal mice and transgenic mice. Because these heterocyclic molecules can be labeled with ^18F using the methods described herein, biodistribution in normal mice can be determined. In such investigations, BL/6 (control mice; Taconic) or APPsw^+/−/PS1 (transgenic, Taconic) mice can be anesthetized by isoflurane inhalation and injected with ^18F-AI-182 or other agents (20 μCi in 50-100 μl saline) via bolus injection through a tail vein. Animals can be sacrificed by cervical dislocation at 2, 30, 60, and 120 min post-injection (n=2-4) and data can be quantified into % ID/g as described (Sivapackiam, J., et al. Synthesis, molecular structure, and validation of metalloprobes for assessment of MDR1 P-glycoprotein-mediated functional transport. Dalton Trans 39, 5842-5850 (2010)). The brains can be removed and dissected into cerebellums and remaining whole brain fractions prior to weighing and counting to evaluate regional differences in the location of radiotracer in comparison with transgenic mice.
For in vivo imaging of Aβ plaques, the basic pharmacokinetic model in an unaffected normal brain involves high initial penetration of the agent, followed by rapid clearance due to lack of a binding target. However, in AD brains, high initial penetration can be followed by regional retention as the agent binds to Aβ thus leading to differential kinetics. To accomplish this objective, biodistribution studies of ^18F-AI-182 were performed in normal FVB mice for assessment of signal to noise ratios and clearance profiles. Brain uptake of ^18F-AI-182 was analyzed in terms of percent injected dose per gram of the brain tissue (% ID/g). […] This initial brain uptake value (5 min) in normal mice is approximately 15-fold high compared with our Aβ-targeted ^99mTc-Peptides (Harpstrite, S. E., Prior, J., Binz, K., Piwnica-Worms, D. & Sharma, V. ^99mTc-Peptide conjugates for imaging β-amyloid in the brain. ACS Med Chem Lett (2013) under review). […] Net brain uptake of ^18F-AI-182 is 1.2-fold higher than that of ^18F-AV-45. The initial data point for ^18F-AI-182 is at 5 min compared with 2 min for ^18F-AV-45.

Stability in human serum = format: in vitro ADME
Excerpt: In various configurations, identified heterocyclic molecules can be assessed for metabolic stability for use in biomedical imaging applications both in vitro and in vivo using established procedures (e.g., Mathis, C., et al. Synthesis and evaluation of ^11C-labeled 6-substituted 2-arylbenzothiazoles as amyloid imaging agents. J. Med. Chem. 46, 2740-2754 (2003); Sharma, V. Radiopharmaceuticals for assessment of multidrug resistance P-glycoprotein-mediated transport activity. Bioconjug. Chem. 15, 1464-1474 (2004)). In some embodiments, ^18F-AI-182, another agent, or a combination thereof can be incubated in either serum or human serum albumin at time points corresponding to uptake in vivo (5 min to 2 h) and filtered through filters (30 kDa). Free and bound radiotracer can be calculated using previously describe methods (Bartholoma, M. D., et al. Effect of the prosthetic group on the pharmacologic properties of ^18F-labeled rhodamine B, a potential myocardial perfusion agent for positron emission tomography (PET). J Med Chem 55, 11004-11012 (2012)), and can be analyzed by radio-TLC scanner and radio-HPLC. […] Brain tissues, liver, and kidney can be removed (liver and kidney can be used to evaluate their metabolic stability in more stringent in vivo environments), sonicated, extracted and analyzed through radio-TLC and -HPLC.

## [11CH3]Nc1ccc(/C=C/c2ccc(O)cc2)cc1 [SB-13, [^11C]4-N-methylamino-4′-hydroxystilbene]
[1]
  biological half-life in serum: low

## CC(=C(C#N)C#N)c1ccc2cc(N(C)CC[18F])ccc2c1 [FDDNP, 2-(1-(6-[(2-[18F]fluoroethyl)(methyl)amino]-2-naphthyl)ethylidene)malononitrile]
BS1 and BS3 sites
  affinity for BS1 and BS3 sites: low affinity

## CN(C)c1ncc(/C=C/c2nc3cc(OCCF)ccc3[se]2)cn1 [F-AI-187]
Preformed Aβ1-42 fibrils
  Kd: 1.58 nM

## CNc1ccc(/C=C/c2ccc(OCCOCCOCC[18F])nc2)cc1 [^18F-AV-45]
[2]
  2 min/120 min brain clearance ratio: 4.07
[3]; 2 min
  kidney uptake: 14.19±2.34 % ID/g
[3]; 120 min
  kidney uptake: 2.19±0.36 % ID/g
  liver uptake: 4.96±0.90 % ID/g
[3]; 2 min post-injection
  brain uptake: 7.33±1.54 % ID/g
[3]; 120 min post-injection
  brain uptake: 1.80±0.07 % ID/g
[4]
  metabolism in vivo: facile metabolism
[1]
  biological half-life in serum: low

## [11CH3]Nc1ccc(-c2nc3ccc(O)cc3s2)cc1 [^11C-PIB, 2-[p-(Methylamino)phenyl]-3-thia-1-aza-5-indanol]
[4]
  metabolism in vivo: facile metabolism

## CN(C)c1ccc(/C=C/c2nc3cc(OCCF)ccc3[se]2)cn1 [F-AI-183]
Preformed Aβ1-42 fibrils
  Kd: 17 nM
Aβ plaques [5]
  staining of brain tissue sections: labeling of Aβ plaques
Aβ plaques [6]
  detection of Aβ plaques in human AD brain cross-sections of frontal lobe: detection of compact Aβ plaques; also recorded: detected compact Aβ plaques

## CN(C)c1ccc(/C=C/c2nc3ccc(OCC[18F])cc3s2)cn1 [^18F-AI-182]
[7]; FVB, kidney, normal mice, 5 min, read-out: kidney uptake
  tissue uptake at 5 min: 6.76 ± 1.57 %ID/g
[7]; FVB, kidney, normal mice, 120 min, read-out: kidney uptake
  tissue uptake at 120 min: 1.57 ± 0.08 %ID/g
[7]; FVB, liver, normal mice, 5 min, read-out: liver uptake
  tissue uptake at 5 min: 16.3 ± 1.41 %ID/g
[7]; FVB, liver, normal mice, 120 min, read-out: liver uptake
  tissue uptake at 120 min: 2.71 ± 0.21 %ID/g
[7]; mice
  penetration of brain / blood-brain barrier: facile penetration of the blood-brain barrier (BBB)
[7]; brain, normal FVB mice, 5 min post tail-vein injection, read-out: brain uptake
  tissue uptake at 5 min: 7.28 ± 0.46 %ID/g
[7]; brain, normal FVB mice, 120 min post tail-vein injection, read-out: brain uptake
  tissue uptake at 120 min: 1.54 ± 0.06 %ID/g
[7]; normal mice
  5 min/120 min brain clearance ratio: 4.73
  initial brain uptake (5 min) compared with Aβ-targeted 99mTc-Peptides: approximately 15 fold
  net brain uptake relative to 18F-AV-45: 1.2 fold
[7]; normal mice, 5 min to 120 min
  blood clearance faster than 18F-AV-45: 25%
Stability in human serum; human serum
  metabolism in human serum: non-metabolized
Stability in human serum; investigated highest time-point
  time until which non-metabolized in human serum: about 30 min
